Assay results taken from patent US20080206253A1, “Method For Preventing or Treating Pain in a Mammal” (priority 2005, published 2008).
“Also recorded” adds a separate entry of the source. No end group written: not given here.

Assays:
Assay type in all cases: in vivo, rat
PGE2 = assay: IT SP-evoked spinal PGE2 release (intrathecal dialysis, ELISA)
Excerpt: It was previously shown that intrathecal injection of SP and NMDA, but not vehicle, evokes PGE2 release assessed by spinal dialysis. Hua et al., Neuroscience 89: 525-534, 1999b.; Svensson et al., Neuroreport 14: 1153-1157, 2003a. It has been reported that PLA2 which generates free arachidonic acid necessary for eicosanoid synthesis, requires phosphorylation to become fully activated and that this phosphorylation can be mediated by p38 MAP kinase. Borsch-Haubold et al., Eur J Biochem 245: 751-759, 1997. The effect of spinal p38α/β inhibition was assessed on IT S P-evoked PGE2 release by injecting SB203580 15 min prior to IT SP. Resting release of PGE2 was determined after a washout period of 30 min. In the absence of pretreatment, baseline dialysate concentrations were determined to be 243±13 femtomol/100 μl perfusate (N=20). If SP (30 nmol) produced a 6-8 fold increase in PGE2 level in intrathecal CSF (FIG. 8A). […] If injection of vehicle prior to IT SP ad no effect on IT SP-evoked PGE2 release.
(A) Bar graph showing PGE2 concentration (fmol/100 μl) measured in cerebrospinal fluid collected by in vivo spinal dialysis of conscious rats before and after IT injection of substance P(SP, 30 nmol) and SB302580 (30 μg). Spinal dialysate is removed and assayed for PGE2 by ELISA at baseline (B, average of two 15 min fractions collected prior to IT injection of SP) and F1: 0-15 minutes, F2: 15-30 minutes and F3: 30-45 minutes and 45-60 minutes after SP injection. Rats received IT SP or IT SB203580 (α/βp38 inhibitor) 15 minutes prior to IT SP. (B) PGE2 release is presented as area under curve (AUC) calculated 60 minutes after IT injection of SP with or without pretreatment with p38 inhibitors. […] Each bar represents the average and SEM for 4-8 rats per group and (*) represents P<[…] versus baseline.
Intrathecal Dialysis & PGE2 assay. Dialysis experiments were conducted in unanethetized rats 4-5 days after the implant. […] The concentration of PGE2 in spinal dialysate was measured by ELISA using a commercially available kit (Assay Designs 90001, Assay Designs, Ann Arbor, Mich.). […]

[1] = tested on: rats, formalin-injected hind paw; assay: Formalin-induced flinching (paw formalin test); settings: IT injection 3-30 μg 10 minutes prior to formalin; 30 μg: P<0.05 versus vehicle
Description: In recent work it was shown that inhibition of spinal p38 MAP kinase attenuated formalin-induced flinching. Svensson et al., J Neurochem 86: 1534-1544, 2003b. To examine the contribution of p38α and p38β in this experimental model of hyperalgesia, animals were injected with p38α, p38β AS or MS IT for five days. These animals were then examined on the formalin test. Unilateral intraplantar formalin solution (2.5%) caused a biphasic flinching pattern where the first 9 minutes are referred to as phase I and the following 50 minutes (min 10-60) as phase II. Yaksh et al., J Neurosci 21: 5847-5853, 2001a. The phase II flinching is considered to represent afferent input initiated spinal facilitation. Dickenson and Sullivan, Neurosci Lett 83: 207-211, 1987; Puig and Sorkin, Pain 64: 345-355, 1996. […] To further confirm the role of p38 to injury-induced pain behavior, a pharmacological inhibitor was also studied: SB203580, a p38α/β non-selective inhibitor.
To quantify formalin induced flinching, an automated sensing system was employed. Yaksh et al., J Appl Physiol 90: 2386-2402, 2001b. Briefly, a soft metal band was placed on the hind paw of the animal being tested. Animals were allowed to acclimate in individual Plexiglas chambers for 30 min before being moved to a test chamber. Just before the animals were placed into the test chamber, they were briefly restrained in a cloth towel, and 2.5% formalin (50 μl) was injected into the dorsal side of the banded paw. Nociceptive behavior was quantified by automatically counting the incidences of spontaneous flinching or shaking of the injected paw. The flinches were counted for 1-min periods for 60 minutes and the flinch data are expressed as number of flinches per min and total flinches observed during phase I (0-9 min) and phase II (10-60 min).

[2] = tested on: phosphorylated p38 (P-p38); assay: IT substance P-evoked spinal p38 phosphorylation (Western blot); settings: IT SP 30 nmol, at 30 min, N=6, P<0.05
Description: (§1) Yaksh et al., Nature 286: 155-157, 1980; Yaksh, Trends Pharmacol Sci 20: 329-337, 1999. […] Malmberg and Yaksh, Science 257: 1276-1279, 1992; Svensson et al., J Neurochem 86: 1534-1544, 2003. […] To investigate the contribution of p38α and p38β to SP-evoked hyperalgesia and p38 phosphorylation, spinal delivery of p38α and p38β AS and MS was carried out. Thermal withdrawal latencies was assessed after IT injection of SP and lumbar spinal cords collected immediately to compare the degree of spinal p38 phosphorylation at the hypothesized time of peak phosphorylation. IT injection of SP into the MS group produced an expected reduction of thermal withdrawal latency in comparison with IT saline injection into to vehicle treated animals (FIG. 7C). […] In contrast, IT SP-induced thermal hyperalgesia was attenuated in rats which had received p38β AS (FIG. 7E). […] Stripping and reprobing the western blot membranes confirmed that p38α protein expression was knocked down in p38α AS treated group (FIG. 7D) as well as p38β in the p38β AS group (FIG. 7F).
(A) Graph displaying paw withdrawal latency (PWL) plotted versus time. […] (B) Representative western blots showing levels of P-p38, total p38 and β-actin in lumbar spinal cord at different time points after IT injection of SP (30 nmol). IT-SP induced p38 phosphorylation peaks 30 minutes after SP injection. (C, E) Graph showing PWL assessed 15 and […] after bolus injection of IT saline or IT SP injection in rats treated with IT ACSF, MS (30 μg), p38α AS (30 fig) or p38β AS (20 μg) daily for five days. […] IT injection of MS or ACSF had no effect on IT SP-evoked thermal hyperalgesia. Each time point represents the mean ±SEM (n=4-5 per group). (D, F) Representative western blots showing the level of P-p38, p38α and p38β and β-actin protein expression assessed 30 minutes after IT SP injection.
Western blot. Prior to sacrifice, rats were deeply anesthetized and after decapitation the spinal cords were ejected from the vertebral column by a saline-filled syringe. The lumbar part of the spinal cord was immediately homogenized in extraction buffer (50 mM Tris buffer, pH 8.0, containing 0.5% Triton X-100, 150 mM NaCl, 1 mM EDTA, phosphatase and protease inhibitors) by sonication. […] After washing, the antibody-protein complexes were probed with appropriate secondary antibodies labeled with horseradish peroxidase for 1 hr at room temperature and detected with chemiluminescent reagents (SuperSignal, Pierce, Rockford, Ill.). […] Intensity of immunoreactive bands was quantified using ImageQuant software (Molecular Dynamics, Sunnyvale, Calif.). p38 immuno-positive bands were normalized relative to β-actin.

[3] = tested on: rats, IT SP (spinal NK-1 receptors); assay: IT substance P-evoked thermal hyperalgesia (paw withdrawal latency, Hargreaves device); settings: IT SP 30 nmol at T=0, versus IT saline
Description: as §1
Nociceptive models. To directly induce spinal sensitization, rats received intrathecal injections of sP (30 nmol) which activates spinal NK-1 receptors and produces thermal hyperalgesia. Hua et al., Neuroscience 89: 525-534, 1999a; Piercey et al., Science 214: 1361-1363, 1981; Yashpal and Henry, Can J Physiol Pharmacol 61: 303-307, 1983. Thermally evoked paw withdrawal responses were assessed using a Hargreaves type testing device. Dirig et al., J Neurosci Methods 76: 183-191, 1997. Briefly, rats were placed on a glass surface maintained at 30° C. The thermal nociceptive stimulus originates from a projection bulb below the glass surface, and the stimulus is delivered separately to one hind paw at a time. The animals were allowed to acclimatize on the glass surface and basal paw withdrawal latencies (PWL) were then assessed for left and right paws at time (T)=−40, =30 and −20 min and expressed as the mean of the six measurements. At T=−10 min the animals received intrathecal vehicle or drug and at T=0, sP was injected. Withdrawal latencies were then assessed at T=15, 30, 45 and 60 min. Paw withdrawal latency for each group was expressed as the mean at each time point.

| Compound | SP-evoked release of PGE2, AUC between groups (PGE2; 30 μg IT prior to SP, AUC 60 minutes after IT SP, unpaired t-test P<0.05) | IT SP-evoked PGE2 release (PGE2; pretreatment 30 μg IT, 15 min prior to IT SP 30 nmol) | flinching during phase II [1] | increase in PGE2 level in intrathecal CSF (PGE2; IT SP 30 nmol, spinal dialysis, conscious rats) | phosphorylation of spinal p38, peak effect, increase as compared to saline group [2] | paw withdrawal latency (PWL) after IT injection [3] |
| --- | --- | --- | --- | --- | --- | --- |
| C[S+]([O-])c1ccc(-c2nc(-c3ccncc3)c(-c3ccc(F)cc3)[nH]2)cc1 (stereo not drawn) [SB203580, reference compound] | significantly lower | prevented IT SP-evoked PGE2 release | dose-dependent attenuation; also recorded: statistically different |  |  |  |
| SP: substance P (Sigma), injected IT to activate spinal NK-1 receptors and produce thermal hyperalgesia (RPKPQQFFGLM-NH2; UniProt P20366 58-68, looked up) [reference compound] |  |  |  | 6-8 fold | 224±41% | transient decrease in PWL |
